Source: patent US9944602B2, “Piperidinone herbicides” (E. I. DU PONT DE NEMOURS AND COMPANY, priority 2014, dated 2018)

Legend:
Type in all cases: in vivo
[1] = tested on: ryegrass, Italian (Italian ryegrass, Lolium multiflorum); test: Test A preemergence ryegrass, Italian; details: Lolium multiflorum, pre-emergence, 240 h, 0 to 100 scale, 0 no effect, 100 complete control, read-out: Ryegrass, Italian plant response rating; for pest or weed control at 125 g/ha: 125 g ai/ha; for pest or weed control at 500 g/ha: 500 g ai/ha
Procedure, shortened: (§1)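 Injury was scored by eye on a 0 to 100 scale after about 10 days in the greenhouse, with 100 meaning complete control. Preemergence treatment was a directed spray onto soil over seeds; postemergence treatment went onto one- to two-leaf plants 2–10 cm tall.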

[2] = tested on: ryegrass, Italian (Italian ryegrass, Lolium multiflorum); test: Test A postemergence ryegrass, Italian; details: Lolium multiflorum, post-emergence, 240 h, 0 to 100 scale, 0 is no effect, 100 is complete control, read-out: Plant response rating, Ryegrass, Italian; for pest or weed control at 125 g/ha: 125 g ai/ha; for pest or weed control at 500 g/ha: 500 g ai/ha
Procedure, shortened: as §1

[3] = tested on: galium (catchweed bedstraw, Galium aparine); test: Test A postemergence galium; details: Galium, post-emergence, 240 h, 0 to 100 scale, 0 is no effect, 100 is complete control, read-out: Plant response rating, Galium; for pest or weed control at 125 g/ha: 125 g ai/ha; for pest or weed control at 500 g/ha: 500 g ai/ha
Procedure, shortened: as §1

[4] = tested on: barnyardgrass (Echinochloa crus-galli); test: Test B flooded paddy test barnyardgrass; details: Echinochloa crus-galli, Table B, Flood, 250 g ai/ha, scale 0 to 100, read-out: Plant response rating
Procedure, shortened: (§2)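 Visual injury relative to controls was scored after 13 to 15 d in the greenhouse. Treatment was by adding compound straight to flood water 3 cm deep, maintained for the whole test, on plants at the 2-leaf stage.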

[5] = tested on: barnyardgrass (Echinochloa crus-galli); test: Test A preemergence barnyardgrass; details: Echinochloa crus-galli, pre-emergence, 240 h, 0 to 100 scale, 0 no effect, 100 complete control, read-out: Barnyardgrass plant response rating; for pest or weed control at 125 g/ha: 125 g ai/ha; for pest or weed control at 500 g/ha: 500 g ai/ha
Procedure, shortened: as §1

[6] = tested on: foxtail, giant (giant foxtail, Setaria faberii); test: Test A postemergence foxtail, giant; details: Setaria faberi, post-emergence, 240 h, 0 to 100 scale, 0 is no effect, 100 is complete control, read-out: Plant response rating, Foxtail, Giant; for pest or weed control at 125 g/ha: 125 g ai/ha; for pest or weed control at 500 g/ha: 500 g ai/ha
Procedure, shortened: as §1

[7] = tested on: barnyardgrass (Echinochloa crus-galli); test: Test A postemergence barnyardgrass; details: Echinochloa crus-galli, post-emergence, 240 h, 0 to 100 scale, 0 is no effect, 100 is complete control, read-out: Plant response rating, Barnyardgrass; for pest or weed control at 125 g/ha: 125 g ai/ha; for pest or weed control at 500 g/ha: 500 g ai/ha
Procedure, shortened: as §1

[8] = tested on: ragweed (common ragweed, Ambrosia elatior); test: Test A preemergence ragweed; details: Ambrosia artemisiifolia, pre-emergence, 240 h, 0 to 100 scale, 0 no effect, 100 complete control, read-out: Ragweed plant response rating; for pest or weed control at 125 g/ha: 125 g ai/ha; for pest or weed control at 500 g/ha: 500 g ai/ha
Procedure, shortened: as §1

[9] = tested on: pigweed (Amaranthus retroflexus); test: Test A preemergence pigweed; details: Amaranthus retroflexus, pre-emergence, 240 h, 0 to 100 scale, 0 no effect, 100 complete control, read-out: Pigweed plant response rating; for pest or weed control at 125 g/ha: 125 g ai/ha; for pest or weed control at 500 g/ha: 500 g ai/ha
Procedure, shortened: as §1

[10] = tested on: blackgrass (Alopecurus myosuroides); test: Test A postemergence blackgrass; details: Alopecurus myosuroides, post-emergence, 240 h, 0 to 100 scale, 0 is no effect, 100 is complete control, read-out: Plant response rating, Blackgrass; for pest or weed control at 125 g/ha: 125 g ai/ha; for pest or weed control at 500 g/ha: 500 g ai/ha
Procedure, shortened: as §1

[11] = tested on: ragweed (common ragweed, Ambrosia elatior); test: Test A postemergence ragweed; details: Ambrosia artemisiifolia, post-emergence, 240 h, 0 to 100 scale, 0 is no effect, 100 is complete control, read-out: Plant response rating, Ragweed; for pest or weed control at 125 g/ha: 125 g ai/ha; for pest or weed control at 500 g/ha: 500 g ai/ha
Procedure, shortened: as §1

[12] = tested on: wheat (Triticum aestivum); test: Test A postemergence wheat; details: Triticum aestivum, post-emergence, 240 h, 0 to 100 scale, 0 is no effect, 100 is complete control, read-out: Plant response rating, Wheat; for plant injury at 125 g/ha: 125 g ai/ha; for plant injury at 500 g/ha: 500 g ai/ha
Procedure, shortened: as §1

[13] = tested on: pigweed (Amaranthus retroflexus); test: Test A postemergence pigweed; details: Amaranthus retroflexus, post-emergence, 240 h, 0 to 100 scale, 0 is no effect, 100 is complete control, read-out: Plant response rating, Pigweed; for pest or weed control at 125 g/ha: 125 g ai/ha; for pest or weed control at 500 g/ha: 500 g ai/ha
Procedure, shortened: as §1

[14] = tested on: foxtail, giant (giant foxtail, Setaria faberii); test: Test A preemergence foxtail, giant; details: Setaria faberi, pre-emergence, 240 h, 0 to 100 scale, 0 no effect, 100 complete control, read-out: Foxtail, Giant plant response rating; for pest or weed control at 125 g/ha: 125 g ai/ha; for pest or weed control at 500 g/ha: 500 g ai/ha
Procedure, shortened: as §1

kochia (Kochia scoparia) [15] = test: Test A postemergence kochia; details: Bassia scoparia, post-emergence, 240 h, 0 to 100 scale, 0 is no effect, 100 is complete control, read-out: Plant response rating, Kochia; for pest or weed control at 125 g/ha: 125 g ai/ha; for pest or weed control at 500 g/ha: 500 g ai/ha
Procedure, shortened: as §1

corn (Zea mays) = test: Test A postemergence corn; details: Zea mays, post-emergence, 240 h, 0 to 100 scale, 0 is no effect, 100 is complete control; for Corn plant response rating (crop injury, 0 = no effect, 100 = complete kill) at 125 g/ha: 125 g ai/ha; for Corn plant response rating (crop injury, 0 = no effect, 100 = complete kill) at 500 g/ha: 500 g ai/ha
Procedure, shortened: as §1

rice (Oryza sativa) = test: Test B flooded paddy test rice; details: Oryza sativa, Table B, Flood, 250 g ai/ha, scale 0 to 100, read-out: Plant response rating
Procedure, shortened: as §2

kochia (Kochia scoparia) [16] = test: Test A preemergence kochia; details: Bassia scoparia, pre-emergence, 240 h, 0 to 100 scale, 0 no effect, 100 complete control, read-out: Kochia plant response rating; for pest or weed control at 125 g/ha: 125 g ai/ha; for pest or weed control at 500 g/ha: 500 g ai/ha
Procedure, shortened: as §1

[17] = tested on: ducksalad (Heteranthera limosa); test: Test B flooded paddy test ducksalad; details: Heteranthera limosa, Table B, Flood, 250 g ai/ha, scale 0 to 100, read-out: Plant response rating
Procedure, shortened: as §2

[18] = tested on: sedge, umbrella (small-flower umbrella sedge, Cyperus difformis); test: Test B flooded paddy test sedge, umbrella; details: Cyperus difformis, Table B, Flood, 250 g ai/ha, scale 0 to 100, read-out: Plant response rating
Procedure, shortened: as §2

SMILES: O=C1NCC[C@H](c2cccc(C(F)(F)F)c2)[C@H]1C(=O)Nc1cccc(Cl)c1F [Compound 25, (3R,4S)—N-(3-chloro-2-fluorophenyl)-2-oxo-4-[3-(trifluoromethyl)phenyl]-3-piperidinecarboxamide]
- pest or weed control at 125 g/ha [1]: 0%
- pest or weed control at 500 g/ha [1]: 50%
- pest or weed control at 125 g/ha [2]: 30%
- pest or weed control at 500 g/ha [2]: 40%
- pest or weed control at 125 g/ha [3]: 30%
- pest or weed control at 500 g/ha [3]: 30%
- pest or weed control at 250 g/ha [4]: 60%
- pest or weed control at 125 g/ha [5]: 90%
- pest or weed control at 500 g/ha [5]: 90%
- pest or weed control at 125 g/ha [6]: 80%
- pest or weed control at 500 g/ha [6]: 80%
- pest or weed control at 125 g/ha [7]: 80%
- pest or weed control at 500 g/ha [7]: 80%
- pest or weed control at 125 g/ha [8]: 0%
- pest or weed control at 500 g/ha [8]: 0%
- pest or weed control at 125 g/ha [9]: 0%
- pest or weed control at 500 g/ha [9]: 0%
- pest or weed control at 125 g/ha [10]: 60%
- pest or weed control at 500 g/ha [10]: 80%
- pest or weed control at 125 g/ha [11]: 0%
- pest or weed control at 500 g/ha [11]: 0%
- plant injury at 125 g/ha [12]: 40%
- plant injury at 500 g/ha [12]: 60%
- pest or weed control at 125 g/ha [13]: 0%
- pest or weed control at 500 g/ha [13]: 0%
- pest or weed control at 125 g/ha [14]: 90%
- pest or weed control at 500 g/ha [14]: 90%
- pest or weed control at 125 g/ha (kochia (Kochia scoparia) [15]): 0%
- pest or weed control at 500 g/ha (kochia (Kochia scoparia) [15]): 0%
- Corn plant response rating (crop injury, 0 = no effect, 100 = complete kill) at 125 g/ha (corn (Zea mays)): 20%
- Corn plant response rating (crop injury, 0 = no effect, 100 = complete kill) at 500 g/ha (corn (Zea mays)): 70%
- plant injury at 250 g/ha (rice (Oryza sativa)): 0%
- pest or weed control at 125 g/ha (kochia (Kochia scoparia) [16]): 0%
- pest or weed control at 500 g/ha (kochia (Kochia scoparia) [16]): 0%
- pest or weed control at 250 g/ha [17]: 45%
- pest or weed control at 250 g/ha [18]: 0%

SMILES: O=C1NCC[C@H](c2ccc(C(F)(F)F)cc2)[C@H]1C(=O)Nc1cccc(F)c1F [Compound 22, (3R,4S)—N-(2,3-difluorophenyl)-2-oxo-4-[4-(trifluoromethyl)phenyl]-3-piperidinecarboxamide]
- pest or weed control at 125 g/ha [1]: 20%
- pest or weed control at 500 g/ha [1]: 60%
- pest or weed control at 125 g/ha [2]: 40%
- pest or weed control at 500 g/ha [2]: 70%
- pest or weed control at 125 g/ha [3]: 50%
- pest or weed control at 500 g/ha [3]: 70%
- pest or weed control at 250 g/ha [4]: 65%
- pest or weed control at 125 g/ha [5]: 90%
- pest or weed control at 500 g/ha [5]: 90%
- pest or weed control at 125 g/ha [6]: 90%
- pest or weed control at 500 g/ha [6]: 90%
- pest or weed control at 125 g/ha [7]: 80%
- pest or weed control at 500 g/ha [7]: 90%
- pest or weed control at 125 g/ha [8]: 60%
- pest or weed control at 500 g/ha [8]: 80%
- pest or weed control at 125 g/ha [9]: 20%
- pest or weed control at 500 g/ha [9]: 50%
- pest or weed control at 125 g/ha [10]: 50%
- pest or weed control at 500 g/ha [10]: 60%
- pest or weed control at 125 g/ha [11]: 50%
- pest or weed control at 500 g/ha [11]: 50%
- plant injury at 125 g/ha [12]: 0%
- plant injury at 500 g/ha [12]: 60%
- pest or weed control at 125 g/ha [13]: 40%
- pest or weed control at 500 g/ha [13]: 50%
- pest or weed control at 125 g/ha [14]: 90%
- pest or weed control at 500 g/ha [14]: 90%
- pest or weed control at 125 g/ha (kochia (Kochia scoparia) [15]): 40%
- pest or weed control at 500 g/ha (kochia (Kochia scoparia) [15]): 60%
- Corn plant response rating (crop injury, 0 = no effect, 100 = complete kill) at 125 g/ha (corn (Zea mays)): 0%
- Corn plant response rating (crop injury, 0 = no effect, 100 = complete kill) at 500 g/ha (corn (Zea mays)): 60%
- plant injury at 250 g/ha (rice (Oryza sativa)): 0%
- pest or weed control at 125 g/ha (kochia (Kochia scoparia) [16]): 70%
- pest or weed control at 500 g/ha (kochia (Kochia scoparia) [16]): 80%
- pest or weed control at 250 g/ha [17]: 100%
- pest or weed control at 250 g/ha [18]: 0%
